Legend:
Assay type in all cases: in vivo, broilers (Cobb 500 male chicks)
[1] = Broiler performance (feed intake, weight gain, feed conversion) with different Zn sources
From the text: (§1) An experiment was developed with the purpose of investigating the effect of providing six different sources of Zn, at two levels of supplementation, in diets based on corn, soybean bran and phytase, with respect to performance and balance of Zn in broilers.
The experimental feeds used for the initial phase (1 to 21 days) and for growth (21 to 42 days) were formulated based on corn, soybean bran and phytase, following the recommendations proposed by Rostagno et al. (2017) for each phase.
Feed and water were freely provided throughout an experimental period from 1 to 42 days. The shed room temperature was maintained using 250 Watt infrared lamps and curtains on the sides of the shed. Light was provided for 22 hours/day in a scheme of 12 hours of natural light and 10 hours of artificial light. 2,400 lineage Cobb 500 male chicks were used, distributed in a randomized block design housed on the floor in a shed divided into 120 boxes of 1.0×2.0 meters (3,3×6.6 ft), with reused wood shavings bed, for the purpose of increasing the health challenge of birds. […]
The parameters of performance evaluated were feed intake (FI, kg/bird), weight gain (WG, kg/bird), feed conversion (FC, kg/kg).

[2] = Foot Pad Lesions (FPL) score in broilers at 42 days
Protocol: as §1
(§2) Feed and water were freely provided throughout an experimental period from 1 to 42 days. The shed room temperature was maintained using 250 Watt infrared lamps and curtains on the sides of the shed. Light was provided for 22 hours/day in a scheme of 12 hours of natural light and 10 hours of artificial light. 2,400 lineage Cobb 500 male chicks were used, distributed in a randomized block design housed on the floor in a shed divided into 120 boxes of 1.0×2.0 meters (3,3×6.6 ft), with reused wood shavings bed, for the purpose of increasing the health challenge of birds.
(§3) The birds were randomly distributed in a 6×2 factorial arrangement with six different sources of Zn and two levels of Zn (40 and 80 mg/kg), totaling 12 treatments with 10 repetitions and 20 animals per box (this being considered one experimental unit).
At 42 days of age, during individual weighing of the birds, the quality of the foot pad was determined, using the Foot Pad Lesions (FPL) score according to Berg (1998) and Van Ham et al. (2019), wherein both foot pads of all animals in the experiment were evaluated. Score 0 was given for cushions without any injuries, 1 for discolored cushions but without deep injuries, and score 2 for cushions with deep injuries (ulcers, blisters, etc.). As this is a subjective fact, only one person was responsible for the assessment of the foot pad score. The Injury Score for each experimental unit was calculated according to the following equation, with FPL index varying from 0 to 200 (all birds having score 2).

[3] = Zn balance in broilers (Zn in excreta, retained Zn)
Protocol: as §1, §2, §3
At 33 days of age, excreta were collected for 24 hours by placing a plastic canvas on the floor of each box to determine Zn content (mg/kg of dry matter in excreta), retained Zn (consumed mg minus excreted mg), and Zn balance (retained Zn/consumed Zn x 100).

[4] = level of zinc 40 mg/kg, 1 to 42 days
[5] = level of zinc 80 mg/kg, 1 to 42 days

O=S(=O)([O-])[O-].[Zn+2] [SF, ZnSO4]
Feed Conversion ([1]; level of zinc 40 mg/kg): 1.52 kg consumption/kg | Feed Consumption [1, 4]: 4.81 kg/bird | Weight Gain [1, 4]: 3.17 kg/bird | Feed Conversion ([1]; level of zinc 80 mg/kg): 1.51 kg consumption/kg | Feed Consumption [1, 5]: 4.73 kg/bird | Weight Gain [1, 5]: 3.14 kg/bird | Feed Conversion ([1]; level of zinc 100 mg/kg, trend based on results from 40 to 80 ppm of Zn): 1.52 kg consumption/kg | Feed Conversion ([1]; mean): 1.51 ab kg consumption/kg | Feed Consumption ([1]; mean of 40 and 80 mg/kg): 4.77 kg/bird | Weight Gain ([1]; mean of 40 and 80 mg/kg): 3.16 kg/bird | Foot pad lesions % (42 days) ([2]; level of zinc 40 mg/kg): 18.98% | Foot pad lesions % (42 days) ([2]; level of zinc 80 mg/kg): 25.09% | Foot pad lesions % (42 days) ([2]; mean of 40 and 80 mg/kg): 22.0% | Percentage of Retained Zinc ([3]; level of zinc 40 mg/kg): 19.52% | Zinc Excretion ([3]; level of zinc 40 mg/kg, excreta collected 24 h): 10.26 mg/bird | Percentage of Retained Zinc ([3]; level of zinc 80 mg/kg): 47.23% | Zinc Excretion ([3]; level of zinc 80 mg/kg, excreta collected 24 h): 9.17 mg/bird | Percentage of Retained Zinc ([3]; mean of 40 and 80 mg/kg): 33.4% | Zinc Excretion ([3]; mean of 40 and 80 mg/kg): 9.7 mg/bird

Reference: patent US20230345990A1, “PROCESS FOR PRODUCTION OF CONCENTRATES OF CHELATED MINERALS WITH SOYBEAN AMINO ACIDS AND/OR SOYBEAM PROTEIN, AND RELATED PRODUCT” (Yessinergy Holding S.A., priority 2021, published 2023)
